For series [1] the following is noted: Crystal 2; Adiabatic calorimetry.
Series [2] in a line: Molar enthalpy of transition or fusion. The following applies: Crystal 2; DSC.

± gives the expanded uncertainty stated by the source.

Turning to `C1C2CC3CC1CC(C2)C3` [adamantane], the Triple point temperature in series [1] was 208 ± 0.18 K. In series [2], the “Molar enthalpy of transition or fusion” value is 0.739 ± 0.043 kcal/mol.
